Experimental data: patent publication US20100202971A1, “COMPOUND HAVING TUMOR-RESIDENT PROPERTY” (priority 2009, published 2010)

What was measured:
Format in all cases: in vivo, KSN nude mice
[1] = tested on: human colon carcinoma cells (SW480); experiment: Pharmacokinetics 1: concentration-time course in blood plasma, organs and tumor after intraperitoneal administration (LC/MS); conditions: 10 mg/kg intraperitoneal; for concentration in tumor tissues immediately after administration in comparison with other tissues / concentration in tumor tissues 24 hours after administration / residence in tumor tissues: SW480 tumor; for time of the highest concentration in blood plasma, liver, kidney, spleen and lung / time after administration at which concentration fell below the detection limit, blood plasma / time after administration at which concentration fell below the detection limit, kidney / time after administration at which concentration fell below the detection limit, liver / time after administration at which concentration fell below the detection limit, lung / time after administration at which concentration fell below the detection limit, spleen: SW480 tumor-bearing nude mice; for residence in tumor tissues: followed to 24 hours
Procedure: To eight-week-old male KSN nude mice (Japan SLC, Inc.), 2×10^6 of human colon carcinoma cells (SW480) were transplanted subcutaneously, two weeks later (body weight approximately 25 g, tumor volume approximately 200 mm^3) αSQMG C18:0 or αSQAP C18:0 was dissolved in physiological saline solution and administered intraperitoneally at a dose of 10 mg/kg (0.1 mL). After the administration, the mice were slaughtered chronologically with carbon dioxide; 30 minute, 1 hour, 2 hours, 4 hours, 12 hours, and 24 hours after the administration. Tissues of blood, liver, kidney, lung and spleen, and tumor tissue were then collected. At each time when tissues were collected, five animals were used.
Whole blood was collected from postcaval vein with use of an injection needle wetted with heparin sodium injection solution (10,000 unit/10 mL) to obtain blood plasma by 20 minutes of centrifugation at 6,000 g. To 90 μl of blood plasma, 5 μl of an internal standard compound (αSQMG C16:0), 5 μl of distilled water, and 4 μl of phosphoric acid were added, and denatured protein by adding 96 μl of acetonitrile. To 0.2 mL of the solution, 600 μl of 10 mM ammonium acetate solution was added, and stirred sufficiently to obtain supernatant by centrifugation at 16,000 g for 15 minutes. The supernatant was subjected to solid-phase extraction operation as described below. The solid-phase extraction was performed by washing with 1000 μl of 10 mM ammonium acetate aqueous solution and 200 μl of 10 mM ammonium acetate aqueous solution containing 10% acetonitrile, followed by elution of a test compound with 200 μl of 10 mM ammonium acetate aqueous solution containing 70% acetonitrile with use of Empore (trademark) disc cartridge (3M Company, product number 4115SD). The compound was used as a LC/MS analytical sample.
Each organ was extirpated after collection of blood and immediately frozen on dry ice. The frozen sample was subjected to frost shattering, and the weight was measured. Subsequently, ½-fold (weight ratio) internal standard compound (αSQMG C16:0) and distilled water were added, and 8-fold (weight ratio) extraction solution (2.5% NP-40, 2% phosphoric acid, 2 mM Eserine aqueous solution) was further added to the sample, followed by homogenization. The homogenized solution was subjected to protein denaturation with acetonitrile and solid phase extraction in the same manner as the above-mentioned treatment of blood plasma to obtain an analytical sample.
10 μl of the analytical sample was separated with a reverse phase HPLC system equipped with Capcell Pak MG column (particle diameter; 3 μm, column size; 2.1×50 mm, Shiseido Co., Ltd.). HPLC was performed with 68% acetonitrile and a single solvent of 10 mM ammonium acetate aqueous solution at a flow rate of 0.2 mL per minute. Mass spectrum was measured in a negative mode, and the peak area ratio of the internal standard compound was calculated by integration of the peak area from chromatogram corresponding to each ion by measuring a precursor ion; m/z=583.1, fragment ion; m/z=224.7 and m/z=298.8 for αSQMG C18:0, a precursor ion; m/z=567.1, fragment ion; m/z=224.7 and m/z=283.1 for αSQAP C18:0, and a precursor ion; m/z=555.1, fragment ion; m/z=224.7 and m/z=298.8 for a internal standard compound αSQMG C16:0. As a method of quantitative analysis, an internal standard analysis was adopted. More specifically, a standard curve was drawn based on the peak area ratio of the internal standard compound by analyzing the sample to which the test compound was added, to determine the quantity of the test compound.

[2] = tested on: human sophageal squamous cell carcinoma cells TE-8; experiment: Pharmacokinetics 2: concentration-time course in blood plasma, organs and tumor after intravenous administration (LC/MS); conditions: 1 mg/kg intravenous
Procedure: To eight-week-old male KSN nude mice (Japan SLC, Inc.), 2×10^6 of human colon carcinoma cells (SW480) were transplanted subcutaneously, two weeks later (body weight approximately 25 g, tumor volume approximately 200 mm^3) αSQMG C18:0 or αSQAP C18:0 was dissolved in physiological saline solution and administered intraperitoneally at a dose of 10 mg/kg (0.1 mL). After the administration, the mice were slaughtered chronologically with carbon dioxide; 30 minute, 1 hour, 2 hours, 4 hours, 12 hours, and 24 hours after the administration. Tissues of blood, liver, kidney, lung and spleen, and tumor tissue were then collected. At each time when tissues were collected, five animals were used. Whole blood was collected from postcaval vein with use of an injection needle wetted with heparin sodium injection solution (10,000 unit/10 mL) to obtain blood plasma by 20 minutes of centrifugation at 6,000 g. To 90 μl of blood plasma, 5 μl of an internal standard compound (αSQMG C16:0), 5 μl of distilled water, and 4 μl of phosphoric acid were added, and denatured protein by adding 96 μl of acetonitrile. To 0.2 mL of the solution, 600 μl of 10 mM ammonium acetate solution was added, and stirred sufficiently to obtain supernatant by centrifugation at 16,000 g for 15 minutes. The supernatant was subjected to solid-phase extraction operation as described below. The solid-phase extraction was performed by washing with 1000 μl of 10 mM ammonium acetate aqueous solution and 200 μl of 10 mM ammonium acetate aqueous solution containing 10% acetonitrile, followed by elution of a test compound with 200 μl of 10 mM ammonium acetate aqueous solution containing 70% acetonitrile with use of Empore (trademark) disc cartridge (3M Company, product number 4115SD). The compound was used as a LC/MS analytical sample. Each organ was extirpated after collection of blood and immediately frozen on dry ice. The frozen sample was subjected to frost shattering, and the weight was measured. Subsequently, ½-fold (weight ratio) internal standard compound (αSQMG C16:0) and distilled water were added, and 8-fold (weight ratio) extraction solution (2.5% NP-40, 2% phosphoric acid, 2 mM Eserine aqueous solution) was further added to the sample, followed by homogenization. The homogenized solution was subjected to protein denaturation with acetonitrile and solid phase extraction in the same manner as the above-mentioned treatment of blood plasma to obtain an analytical sample. 10 μl of the analytical sample was separated with a reverse phase HPLC system equipped with Capcell Pak MG column (particle diameter; 3 μm, column size; 2.1×50 mm, Shiseido Co., Ltd.). HPLC was performed with 68% acetonitrile and a single solvent of 10 mM ammonium acetate aqueous solution at a flow rate of 0.2 mL per minute. Mass spectrum was measured in a negative mode, and the peak area ratio of the internal standard compound was calculated by integration of the peak area from chromatogram corresponding to each ion by measuring a precursor ion; m/z=583.1, fragment ion; m/z=224.7 and m/z=298.8 for αSQMG C18:0, a precursor ion; m/z=567.1, fragment ion; m/z=224.7 and m/z=283.1 for αSQAP C18:0, and a precursor ion; m/z=555.1, fragment ion; m/z=224.7 and m/z=298.8 for a internal standard compound αSQMG C16:0. As a method of quantitative analysis, an internal standard analysis was adopted. More specifically, a standard curve was drawn based on the peak area ratio of the internal standard compound by analyzing the sample to which the test compound was added, to determine the quantity of the test compound. The pharmacokinetics of αSQAP C18:0 was tested by administering 1 mg/kg of αSQAP C18:0 to animals in the same manner as Example 3 except that human sophageal squamous cell carcinoma cells TE-8 were used as tumor of transplanted tumor model and that intravenous administration was adopted as substitute for interperitoneal administration.

[3] = tested on: human esophageal squamous cell carcinoma cells TE-8; experiment: Biological distribution of biotinated αSQMG in tumor of tumor-bearing nude mice (TRITC-avidin staining of tumor segments); conditions: intravenous 40, 20 and 2 mg/kg, FIG. 1
Procedure: 1×10^6 of human esophageal squamous cell carcinoma cells TE-8 were transplanted into the right femoral region of 11 male KSN nude mice (Japan SLC, Inc.), and the mice were bred to form a tumor mass of about […] volume.
Thereafter, biotinated αSQMG C18:0 (formula XI) was dissolved in physiological saline solution, and 0.1 mL of the solution per administration was intravenously administered to each group comprising three mice so that the amount of the biotinated αSQMG C18:0 could be 40 mg/kg, 20 mg/kg, and 2 mg/kg. To two reference tumor bearing mice, physiological saline was administered. […]
In order to evaluate a tumor region which emits fluorescence due to TRITC, binarization imaging was performed with use of Photoshop. Thereafter, a portion (fraction) containing tumor tissues was selected from the visual field, and the number of pixels of a TRITC positive region (black color region) and the entire region were counted and the ratio of the positive region was calculated according to the formula:
The proportion (%) of biotinated αSQAP detected region=[the area of the black color region (region where the biotinated αSQMG was detected)]/[the area of the whole of the selected fraction]×100=[the number of pixels in the TRITC positive region]/[the number of pixels in the whole fraction]×100 (%) formula (A) […]

Compound: CCCCCCCCCCCCCCCCCC(=O)OCCCO[C@H]1O[C@H](CS(=O)(=O)[O-])[C@@H](O)[C@H](O)[C@H]1O.[Na+] [αSQAP C18:0]
- concentration in tumor tissues immediately after administration in comparison with other tissues [1]: low
- time of the highest concentration in blood plasma, liver, kidney, spleen and lung [1]: immediately after the administration
- time after administration at which concentration fell below the detection limit, blood plasma [1]: four
- time after administration at which concentration fell below the detection limit, kidney [1]: four
- time after administration at which concentration fell below the detection limit, liver [1]: 12 h
- time after administration at which concentration fell below the detection limit, lung [1]: four
- time after administration at which concentration fell below the detection limit, spleen [1]: four
- concentration in tumor tissues 24 hours after administration [1]: detectable
- residence in tumor tissues [1]: resides for a long period
- concentration in tumor tissue immediately after administration in comparison with other organs ([2]; TE-8 tumor): low
- time of the highest concentration in blood plasma, liver, spleen and lung ([2]; TE-8 tumor-bearing nude mice): immediately after administration
- time after administration at which concentration fell below the detection limit, blood plasma ([2]; TE-8 tumor-bearing nude mice, blood plasma): two
- time after administration at which concentration fell below the detection limit, liver ([2]; TE-8 tumor-bearing nude mice, liver): two
- time after administration at which concentration fell below the detection limit, lung ([2]; TE-8 tumor-bearing nude mice, lung): two
- time after administration at which concentration fell below the detection limit, spleen ([2]; TE-8 tumor-bearing nude mice, spleen): 24 h
- concentration in tumor tissue after 24 hours ([2]; TE-8 tumor, 24 hours): detectable
- course of concentration in tumor tissue after two hours ([2]; TE-8 tumor, after two hours): no decrease tendency
- residence in tumor tissues ([2]; TE-8 tumor, followed to 24 hours): resides for a long period

Compound: 3-O-[4-O-(biotinyl-β-alanyl)-6-sulfo-α-D-quinovopyranosyl]-1-0-stearoyl-glycerol [biotinated αSQMG C18:0]
- tumor-resident amount ([3]; 9 hours after administration): high
- staining of tumor tissues (TRITC positive region) ([3]; tumor extracted 9 hours after administration, TE-8 tumor): strongly stained according to the dose

Compound: CCCCCCCCCCCCCCCCCC(=O)OCC(O)CO[C@H]1O[C@H](CS(=O)(=O)[O-])[C@@H](O)[C@H](O)[C@H]1O.[Na+] (some centres unmarked) [αSQMG C18:0]
- concentration in tumor tissues immediately after administration in comparison with other tissues [1]: low
- time of the highest concentration in blood plasma, liver, kidney, spleen and lung [1]: immediately after the administration
- time after administration at which concentration fell below the detection limit, blood plasma [1]: four
- time after administration at which concentration fell below the detection limit, kidney [1]: four
- time after administration at which concentration fell below the detection limit, liver [1]: four
- time after administration at which concentration fell below the detection limit, lung [1]: four
- time after administration at which concentration fell below the detection limit, spleen [1]: 12 h
- concentration in tumor tissues 24 hours after administration [1]: detectable
- residence in tumor tissues [1]: resides for a long period
